Values joined by “and” are separate entries in the source; they are usually repeats but may differ in a detail not shown here. Identical values can stand only once. Like-named read-outs stand apart in the source and are kept apart here.
Key:
[1] = for Cyclosporine per insert Mean ± SD: initial 671±13 μg; for Cyclosporine per insert, OD: 0.67 mg insert (initial 671±13 μg), 9% 4a20K SG/trilysine
[2] = beagle, insert nominal dose 0.7 mg, in 6 weeks
[3] = Proof of concept PK study Example 3.2: cyclosporine tear fluid concentration and drug released from inserts; format: in vivo, beagle dogs; details: beagle, insert nominal dose 0.44 mg, over 32 days, assuming consistent daily release
From the text: Inserts were removed at 32 days to determine the amount of remaining drug compared to the administered dose.

## CC=CCC(C)C(O)C1C(=O)NC(CC)C(=O)N(C)CC(=O)N(C)C(CC(C)C)C(=O)NC(C(C)C)C(=O)N(C)C(CC(C)C)C(=O)NC(C)C(=O)NC(C)C(=O)N(C)C(CC(C)C)C(=O)N(C)C(CC(C)C)C(=O)N(C)C(C(C)C)C(=O)N1C (centres unmarked) [cyclosporine, 30-ethyl-33-(1-hydroxy-2-methylhex-4-enyl)-1,4,7,10,12,15,19,25,28-nonamethyl-6,9,18,24-tetrakis(2-methylpropyl)-3,21-di(propan-2-yl)-1,4,7,10,13,16,19,22,25,28,31-undecazacyclotritriacontane-2,5,8,11,14,17,20,23,26,29,32-undecone]
[1]; amount left in inserts removed from beagles at day 28, all eyes
  Cyclosporine per insert Mean ± SD: 576 ± 18 µg
[1]; amount left in inserts removed from beagles at day 50, all eyes
  Cyclosporine per insert Mean ± SD: 494 ± 32 µg
[1]; amount left in single insert removed from beagle right eye at day 28
  Cyclosporine per insert, OD: 596 µg
[1]; amount left in single insert removed from beagle right eye at day 50
  Cyclosporine per insert, OD: 520 µg and 521 µg and 451 µg
[1]; beagle, initial dose 671±13 μg, 28 days
  released amount: 3.4 µg
[1]; beagle, initial dose 671±13 μg, 50 days
  released amount: 3.5 µg
[1]; beagle, initial dose 671±13 μg, inserts removed at 28 days
  amount of cyclosporine left in the removed insert: 576 ± 18 µg
[1]; beagle, initial dose 671±13 μg, inserts removed at 50 days
  amount of cyclosporine left in the removed insert: 494 ± 32 µg
[1]; beagle, initial dose 671±13 μg, over 28 and 50 days
  daily estimated delivered dose: approximately 3.5 μg/day
[2]
  average amount of cyclosporine released: 0.37 mg
[3]
  estimated daily delivered dose: 6.3 µg/day
